Assay results published in patent publication US20080194528A1, “Pharmaceutical compositions comprising organopolysiloxane elastomers and solubilized bioactive compounds” (GALDERMA RESEARCH AND DEVELOPMENT, priority 2005, published 2008).

Experiment: Active ingredient solubility tests in various solvents
Type: physicochemical
Protocol: The solubility of {4-[6-ethyl-4′-(1-ethyl-1-hydroxypropyl)-2′-propylbiphenyl-3-yloxymethyl]-2-hydroxymethylphenyl}methanol was tested in various solvents.

CCCc1cc(C(O)(CC)CC)ccc1-c1cc(OCc2ccc(CO)c(CO)c2)ccc1CC [compound 3, {4-[6-ethyl-4′-(1-ethyl-1-hydroxypropyl)-2′-propylbiphenyl-3-yloxymethyl]-2-hydroxymethylphenyl}methanol]
Max sol (% w/w) (in Arlamol E): 1.033 % w/w | Max sol (% w/w) (in Cremophor RH40): 3.989 % w/w | Max sol (% w/w) (in Ethanol 95): >20 % w/w | Max sol (% w/w) (in Eutanol G): 0.322 % w/w | Max sol (% w/w) (in IPP): 0.1654 % w/w | Max sol (% w/w) (in Labrafil M1944CS): 0.936 % w/w | Max sol (% w/w) (in Miglyol 812): 0.3167 % w/w | Max sol (% w/w) (in PEG 400): 6.894 % w/w | Max sol (% w/w) (in Primol 352): 0.0009 % w/w | Max sol (% w/w) (in Propylene Glycol): 2.3351 % w/w | Max sol (% w/w) (in Sweet almond oil): 0.0932 % w/w | Max sol (% w/w) (in Transcutol): >20 % w/w
